“Also recorded” adds a separate entry of the source.
Assays:
[1] = test system: p300 induction of p53-dependent gene expression from the bax promoter; assay: p53/p300 co-transfected Saos-2 cells, bax-Luc reporter; type: cell-based; conditions: Saos-2 cells co-transfected with p53 and p300, increasing EGFP construct
Description: FIG. 5: In vivo inhibition of ectopically expressed p53 activity from the bax promoter by phospho-peptide mimetic fusion proteins. (A) Stimulation of p53 activity by cotransfection with p300. Saos-2 cells were transiently co-transfected with 1 μg of pCMV-p53, 2 μg bax-Luc, 1 μg pCMVβ-Gal and increasing amounts of pCMV-βp300. The cells were harvested 30 hours post-transfection and the relative activity is expressed as a ratio of luciferase activity to β-Gal activity. (B) EGFP-S20D peptide fusion protein inhibits p300 induction of p53-dependent gene expression. Saos-2 cells were transiently co-transfected with 1 μg pCMV-p53, 2 μg bax-Luc, 5 μg pCMVβp300, 1 μg of pCMVβ-Gal and increasing amounts of EGFP-S20D or EGFP-control. Cells were harvested 30 hours post-transfection and relative activity is expressed as a ratio of luciferase activity to β-Gal activity ( ? control, 0 μg, 1 μg, 2 μg and 5 μg).
(§1) A final model used to examine whether the phospho-peptide mimetic peptides inhibit p53 activity involved the use of the p53-null cell line Saos-2 co-transfected with p300, p53, and the indicated reporter or expression vectors (FIG. 3). Transient co-transfection of increasing amounts of p300 with p53 into Saos-2 cells lead to maximal stimulation of p53-dependent gene expression from the p21 promoter (FIG. 3A) or the bax promoter (FIG. 5A).
A375 and Saos-2 cells were maintained in DMEM (Gibco BRL) supplemented with 10% FBS and incubated at 37° C. with an atmosphere of 10% CO2. Transient transfections and ELISAs were carried out as previously described (Dornan and Hupp 2001). Full-length p300 and His-p300 infected Sf9 cells were harvested 72 hours post-infection as described previously (Shikama, Lee et al. 1999; Dornan and Hupp 2001). Sf9 expressed wtp53 and p53ΔProAE tetramers were purified by heparin-sepharose chromatography as described previously (Hupp and Lane 1994). […] The signal detected by Enhanced Chemo-luminescence was developed using autoradiography film (Amersham).

[2] = test system: p53-dependent transactivation of the p21 promoter; assay: p21-Luciferase reporter of endogenous p53-dependent transcription in A375 cells; type: cell-based; conditions: for basal p53-dependent transactivation of the p21 promoter: cycling A375 cells, transient transfection, p21-Luc / β-Gal
Description: Proliferating A375 cells were transiently co-transfected with EGFP-NS, EGFP-BOX-I, EGFP-S15D, EGFP-T18D or EGFP-S20D and control or p21-Luciferase reporter constructs. Changes in the basal p53-dependent transcription activity was quantitated 24 hours post-transfection.
A375 and HCT116 cells both containing a wild-type p53 pathway were maintained in DMEM (Gibco BRL) supplemented with 10% FBS and incubated at 37° C. with an atmosphere of 10% CO2. For transient transfections, 3×10^5 cells were plated out in 6-well dishes and transfected with LipofectAMINE (Gibco BRL). The exact quantity of DNA transfected is indicated in each experiment and where necessary, carrier DNA was incorporated to keep the same quantity of DNA consistent in each transfecton. To monitor transfection efficiency, pCMV-βGal was included in each transfection. Unless otherwise stated, cells were harvested 24 hours post-transfection and lysed in Reporter Lysis Buffer and the corresponding luciferase and β-Gal assay carried out according to the manufacturers protocol (Promega, UK).

[3] = test system: p300 induction of p53-dependent gene expression from the p21 promoter; assay: p53/p300 co-transfected Saos-2 cells, p21-Luc reporter; type: cell-based; conditions: for p53-p300 co-stimulated transactivation, p21 promoter: Saos-2 cells co-transfected with p53 and p300, increasing EGFP construct; for p53 protein levels (immunoblot): Saos-2 cells, 1 μg EGFP construct, relative to EGFP-NS control
Description: FIG. 3: In vivo inhibition of ectopically expressed p53 from the p21 promoter by phospho-peptide mimetic fusion proteins. (A) Stimulation of p53 activity by cotransfection with p300. Saos-2 cells were transiently co-transfected with 1 μg of pCMV-p53, 2 μg p21-Luc, 1 μg pCMVβ-Gal and increasing amounts of pCMV-βp300. The cells were harvested 30 hours post-transfection and the relative activity is expressed as a ratio of luciferase activity to β-Gal activity (Δ negative control, 0 ng, 1 μg, 2 μg and 5 μg). (B) EGFP-S20D peptide ([…] LPENN) inhibits p300 induction of p53-dependent gene expression. Saos-2 cells were transiently co-transfected with 1 μg pCMV-p53, 2 μg p21-Luc, 5 μg pCMVβp300, 1 μg of pCMVβ-Gal and increasing amounts of EGFP-constructs as indicated. The cells were processed as described in the legend of FIG. 3A (▴ control, control, 1 μg, 2 μg and 5 μg). (C) Immunoblots of p53 and EGFP-fusion proteins in transfected Saos-2 cells. Lysates from transfected Saos-2 cells [as described in FIG. 3B] were normalized for protein content by Bradford and loading for immunoblots was confirmed by Red Ponceau staining. The constructs transfected are highlighted by the legend above the Figure (increasing amounts of EGFP fused to NS, BOX-I, S15D, T18D, and S20D BOX-I domain peptides) and are described below the Figure as a “+”. The levels of p53, EGFP, and p21 proteins are in the top, middle, or bottom panel, respectively. p53-dependent activity (in RLU's) from FIG. 3B is listed underneath the immunoblots for direct comparison of p53 activity to p53 protein and EGFP protein levels.
as §1
A375 and Saos-2 cells were maintained in DMEM (Gibco BRL) supplemented with 10% FBS and incubated at 37° C. with an atmosphere of 10% CO2. Transient transfections and ELISAs were carried out as previously described (Dornan and Hupp 2001). Full-length p300 and His-p300 infected Sf9 cells were harvested 72 hours post-infection as described previously (Shikama, Lee et al. 1999; Dornan and Hupp 2001). Sf9 expressed wtp53 and p53ΔProAE tetramers were purified by heparin-sepharose chromatography as described previously (Hupp and Lane 1994). Transfected lysates were run on a 12% SDS-PAGE and transferred to nitrocellulose membrane and even protein loading confirmed by Ponceau S (Sigma) staining. Primary antibodies anti-p53 (DO-1), anti-p21 (Ab-1) (Calbiochem), anti-Bax (N-20) (Santa Cruz Biotechnology Inc.), anti-EGFP (Clontech) were used and the appropriate secondary antibody conjugated to HRP. The signal detected by Enhanced Chemo-luminescence was developed using autoradiography film (Amersham).

HCT116 p53^−/− cells = assay: Cell cycle profile by FACS in HCT116 p53-/- cells; type: cell-based; conditions: 5 μg EGFP construct, CD20-selected cells, propidium iodide
Description: With the arrest in G2/M observed in p53^+/+ cells using the PRO and S20D fusion peptides, it was determined whether the peptides would have any effect on the cell cycle profile in a p53^−/− cell line. Using the same parameters as in the p53^+/+ cell line, the effects on the cell cycle were determined (FIGS. 12B and 12D).
(§2) To select the transfected cell population, cells were co-transfected with 3 μg pCMV-CD20 and incubated for 24 hours before washing and detaching cells in PBS/5 mM EDTA. Cells were then harvested and resuspended in serum free media with FITC-conjugated anti-CD20 (Becton Dickinson) and incubating for 30 minutes on ice. Cells were then washed twice with PBS/1% FBS and resuspended in 100 μl PBS before adding 900 μl ice-cold ethanol dropwise. After incubation at 4° C. for >2 hours cells were stained with Pi (40 μg/ml) and treated with RNAse (100 μg/ml). Transfected cells were gated using the FL1 channel and PI staining detected with the FL2 channel and the resultant cell cycle profiles of 2000 cells were analysed using a FACScan and CellQuest software (Becton Dickinson).

HCT116 (p53^+/+) cells = assay: Cell cycle profile by FACS in HCT116 p53+/+ cells; type: cell-based; conditions: 5 μg EGFP construct, CD20-selected cells, propidium iodide
From the text: To address this issue, we co-transfected EGFP-NS, EGFP-BOXI, EGFP-S20D or EGFP-PRO with pCMV-CD20 cell surface marker into HCT116 (p53^+/+) cells, selected the transfected population using a FITC-conjugated CD20 antibody, sorted them by FACS and the resultant cell cycle profile of the transfected population determined by propidium iodide staining of DNA. The amount of EGFP-peptide construct and levels of EGFP protein produced were identical to those used in transcription assays (FIG. 10 and data not shown), so a direct correlation can be made between the reduction in transcription by the EGFP-S20D or EGFP-PRO peptides and changes in cell-cycle parameters. […] The MDM2-binding peptides have been well-documented to have a positive affect on […] dependent transcription (Bottger, Bottger et al. 1996).
as §2

full-length p300 protein = target: T1, full-length p300 protein (Homo sapiens, UniProt Q09472); assay: ELISA binding of full-length p300 to biotinylated peptides; conditions: biotinylated peptide titrated onto streptavidin-coated wells
T1 construct: Full-length p300 and p300(1135-2414) baculovirus were a gift from N. B. La Thangue; made in house; host or cells: Sf9 insect cells (baculovirus)
T1 sequence (Q09472 whole entry): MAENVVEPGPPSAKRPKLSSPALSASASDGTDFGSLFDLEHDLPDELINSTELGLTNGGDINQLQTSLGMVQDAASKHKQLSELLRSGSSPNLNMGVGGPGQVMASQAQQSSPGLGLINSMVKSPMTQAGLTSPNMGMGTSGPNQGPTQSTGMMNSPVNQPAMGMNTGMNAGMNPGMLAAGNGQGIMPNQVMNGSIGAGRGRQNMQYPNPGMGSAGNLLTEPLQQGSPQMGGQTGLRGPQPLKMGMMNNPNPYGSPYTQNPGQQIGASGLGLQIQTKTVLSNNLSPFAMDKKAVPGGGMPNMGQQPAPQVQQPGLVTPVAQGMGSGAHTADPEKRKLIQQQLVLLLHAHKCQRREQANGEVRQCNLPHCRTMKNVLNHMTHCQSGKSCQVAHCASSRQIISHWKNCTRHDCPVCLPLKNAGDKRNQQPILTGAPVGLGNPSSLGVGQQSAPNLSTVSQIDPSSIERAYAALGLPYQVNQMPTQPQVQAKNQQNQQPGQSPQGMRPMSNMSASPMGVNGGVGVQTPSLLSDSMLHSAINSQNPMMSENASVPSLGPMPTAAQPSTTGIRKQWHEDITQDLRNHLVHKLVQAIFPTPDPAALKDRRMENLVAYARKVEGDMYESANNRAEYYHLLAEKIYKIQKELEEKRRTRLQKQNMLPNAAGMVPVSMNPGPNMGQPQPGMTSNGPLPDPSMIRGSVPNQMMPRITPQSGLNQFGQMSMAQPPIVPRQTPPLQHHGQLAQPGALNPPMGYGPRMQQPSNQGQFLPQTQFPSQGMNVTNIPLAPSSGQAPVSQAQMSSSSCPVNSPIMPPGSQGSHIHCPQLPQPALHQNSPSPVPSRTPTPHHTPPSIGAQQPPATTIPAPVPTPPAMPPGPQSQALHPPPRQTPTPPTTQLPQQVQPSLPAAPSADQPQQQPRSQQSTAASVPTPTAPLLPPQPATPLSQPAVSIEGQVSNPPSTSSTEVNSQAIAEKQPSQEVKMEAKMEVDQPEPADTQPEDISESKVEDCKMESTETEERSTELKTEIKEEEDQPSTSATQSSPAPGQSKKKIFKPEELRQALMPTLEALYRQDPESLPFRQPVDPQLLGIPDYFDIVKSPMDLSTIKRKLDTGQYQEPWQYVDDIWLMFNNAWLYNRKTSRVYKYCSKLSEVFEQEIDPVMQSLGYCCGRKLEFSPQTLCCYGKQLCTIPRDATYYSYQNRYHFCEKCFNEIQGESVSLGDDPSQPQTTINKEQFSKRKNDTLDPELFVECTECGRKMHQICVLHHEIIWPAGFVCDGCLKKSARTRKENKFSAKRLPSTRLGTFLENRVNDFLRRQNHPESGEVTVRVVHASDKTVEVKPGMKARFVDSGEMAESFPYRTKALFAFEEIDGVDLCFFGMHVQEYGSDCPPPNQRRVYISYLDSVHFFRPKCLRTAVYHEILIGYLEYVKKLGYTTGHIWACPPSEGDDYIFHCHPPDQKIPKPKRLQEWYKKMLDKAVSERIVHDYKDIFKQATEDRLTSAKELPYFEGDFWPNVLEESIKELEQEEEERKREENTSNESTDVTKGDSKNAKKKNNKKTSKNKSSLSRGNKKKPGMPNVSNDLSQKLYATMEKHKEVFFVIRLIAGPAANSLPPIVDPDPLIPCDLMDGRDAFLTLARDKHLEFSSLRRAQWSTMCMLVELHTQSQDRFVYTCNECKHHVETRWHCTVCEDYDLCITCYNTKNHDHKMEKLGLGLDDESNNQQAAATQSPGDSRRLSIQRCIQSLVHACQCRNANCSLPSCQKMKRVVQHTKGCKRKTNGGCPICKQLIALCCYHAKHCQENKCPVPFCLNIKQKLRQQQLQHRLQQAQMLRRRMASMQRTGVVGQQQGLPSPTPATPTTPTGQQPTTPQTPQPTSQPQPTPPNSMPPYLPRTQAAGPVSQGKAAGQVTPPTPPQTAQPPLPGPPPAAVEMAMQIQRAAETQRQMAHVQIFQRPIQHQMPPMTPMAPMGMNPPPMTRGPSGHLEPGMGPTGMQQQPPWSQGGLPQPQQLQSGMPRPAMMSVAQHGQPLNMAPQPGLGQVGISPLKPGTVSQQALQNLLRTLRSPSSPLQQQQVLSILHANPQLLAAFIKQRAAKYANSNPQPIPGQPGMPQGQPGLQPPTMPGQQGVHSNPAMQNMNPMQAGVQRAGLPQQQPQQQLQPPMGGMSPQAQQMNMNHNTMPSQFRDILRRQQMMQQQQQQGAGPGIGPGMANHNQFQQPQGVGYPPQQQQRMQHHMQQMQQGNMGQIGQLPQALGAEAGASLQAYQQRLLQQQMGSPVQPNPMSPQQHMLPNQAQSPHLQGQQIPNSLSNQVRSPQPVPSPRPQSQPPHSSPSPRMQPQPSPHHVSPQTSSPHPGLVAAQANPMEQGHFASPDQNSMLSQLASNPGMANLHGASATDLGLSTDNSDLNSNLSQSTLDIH
Description: Microtitre wells were coated with 100 ng of streptavidin and incubated overnight at room temperature. To prevent non-specific binding, 100 μl of 3% BSA, PBS, 01% Tween 20 was added and incubated for 1 hour at 4° C. Wells were washed 3 times with 180 μl PBSM 0.1% Tween 20 and biotinylated peptides, resuspended in 50 μl/well of 3% BSA, PBS, 0.1% Tween 20/NaF/Beta-phosphoglycerate, were incubated for 1 hour at 4° C. Non-specific binding sites were blocked by adding 180 μl 5% milk powder, PBS, 0.1 Tween 20/NaF/Beta-phosphoglycerate for 30 minutes at 4° C. before adding p300 resuspended in 50 ml/well of Sf9LB. Where plant extract was added to p300, the reaction was incubated for 30 minutes before adding to wells. The reaction was the incubated for 1 hour at 4° C. and then the wells were rigorously washed 3 times with 180 μl PBS, 0.1%, Tween 20 before incubating for 1 hour with specific antibodies in 50 μl/well 5% milk powder, PBS, 0.1% Tween 20/NaF/Beta-phosphoglycerate. Wells were given another 3 washes with PBS, 0.1%, Tween 20 to remove unbound antibody and specific binding was detected with secondary antibody (anti-mouse or anti-rabbit) conjugated to horse radish peroxidase (HRP). The binding was detected by ECL and quantified using a luminometer (Fluoroskan Ascent FL).
Plates were rigorously washed 3 times with PBST20 (0.1% v/v) to reduce the non-specific binding. Primary antibodies anti-p300(N-15) (Santa Cruz Biotechnology Inc.), anti-FLAG (Sigma) and anti-Mdm2 (2A10) (Movarian Biotechnologies) were used and the appropriate secondary antibody cross-linked to HRP. The signal detected by Enhanced Chemoluminescence was developed using Fluoroskan Ascent FL.

Q: What does the source list for “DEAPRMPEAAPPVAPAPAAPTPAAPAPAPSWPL [EGFP-PRO]”?
A: p53-p300 co-stimulated transactivation, bax promoter [1]: striking inhibition of p53-p300 co-stimulation; basal p53-dependent transactivation of the p21 promoter [2]: inhibit endogenous p53-dependent transcription compared to the EGFP-NS peptide and with the same potency as the EGFP-S20D peptide; p53-p300 co-stimulated transactivation, p21 promoter [3]: striking inhibition of p53-p300 co-stimulation; cell cycle effect (G2/M arrest) (HCT116 p53^−/− cells): similarly induced a G2/M arrest; cell cycle effect (G2/M arrest) (HCT116 (p53^+/+) cells): more striking arrest in G2/M phase

Q: Which “binding of full-length p300 protein to the peptide (RLU)” value (“binding of full-length p300 protein” for short) (full-length p300 protein) does the source give for “p53PRO (69-88): p53 polyproline peptide amino acids 69-88 (AAPPVAPAPAAPTPAAPAPA; UniProt P04637 69-88, looked up, fragment)” here?
A: did not restore binding activity

Q: With “UBF1 (321-336): consensus peptide from UBF1, amino acids 321-336 (STERMVLCSQQWKLLS; UniProt P17480 321-336, looked up, fragment)” as the substance, how does the “binding of full-length p300 protein” value (full-length p300 protein) read?
A: affinity slightly less than the p53 BOX-I-Ser^20 phospho-peptide

Q: For “UBF1 (231-246): consensus peptide from UBF1, amino acids 231-246 (GKQWSQLSDKKRLKWI; UniProt P17480 231-246, looked up, fragment)”, which “binding of full-length p300 protein” value (full-length p300 protein) is on record?
A: did not bind p300

Q: Which “p53-p300 co-stimulated transactivation, bax promoter” value [1] does the source give for EPPLSQETFSDLWKLLPENN [EGFP-BOX-I] here?
A: stimulated p53 activity

Q: What about the “p53-dependent gene expression in irradiated cells” value ([2]; A375 cells, ionizing radiation (5 Gy) or UV-C (20 J/m^2), p21-Luc) of the same substance?
A: stimulated p53 activity in the irradiated cell

Q: And the “basal p53-dependent transactivation of the p21 promoter” value [2]?
A: expected increase in p53-dependent transactivation

Q: What about the “p53-p300 co-stimulated transactivation, p21 promoter” value [3] of the same substance?
A: stimulated p53 activity

Q: What about the “p53 protein levels (immunoblot)” value [3] of the same substance?
A: increased

Q: What about the “cell cycle effect (G2/M arrest)” value (HCT116 (p53^+/+) cells) of the same substance?
A: relatively insignificant role in altering cell-cycle parameters

Q: “C-terminal end of the SMAD4 polyproline domain: peptide from the Smad-4 proline-rich region (aa 275-303), C-terminal end (PYTPNLPHHQNGHLQHHPPMPPHPGHYWP; UniProt Q13485 275-303, looked up, fragment)” was tested. Which “binding of full-length p300 protein” value (full-length p300 protein) did it give?
A: relatively high affinity

Q: For EPPLSQETFDDLWKL LPENN [EGFP-S20D], which “p53-p300 co-stimulated transactivation, bax promoter” value [1] is on record?
A: inhibited synergism between p53 and p300; also recorded: inhibits transactivation

Q: And the “basal p53-dependent transactivation of the p21 promoter” value [2]?
A: inhibiting p53 activity to the highest degree

Q: What about the “p53-p300 co-stimulated transactivation, p21 promoter” value [3] of the same substance?
A: inhibited synergism between p53 and p300; also recorded: inhibits transactivation

Q: What about the “p53 protein levels (immunoblot)” value [3] of the same substance?
A: increased

Q: What about the “cell cycle effect (G2/M arrest)” value (HCT116 p53^−/− cells) of the same substance?
A: failed to elicit a defined G2/M arrest

Q: And the “cell cycle effect (G2/M arrest)” value (HCT116 (p53^+/+) cells)?
A: induced a prominent G2/M arrest

Q: With “p53 polyproline peptide (83-102): p53 polyproline peptide containing amino acids 83-102 (AAPAPAPSWPLSSSVPSQKT; UniProt P04637 83-102, looked up, fragment)” as the substance, how does the “binding of full-length p300 protein” value (full-length p300 protein) read?
A: high affinity

From patent US20040132108A1, “Screening methods and agents” (priority 2001, published 2004)
